Data reported in ChEMBL document CHEMBL1201862, “PubChem BioAssay data set” (2004).
Values joined by “and” are separate entries in the source; they are usually repeats but may differ in a detail not shown here. Equal entries are not always repeated. Active and inactive are the calls of the source.

Legend:
[1] = target: FAD-linked sulfhydryl oxidase ALR (Homo sapiens, UniProt P55789); test: inhibitors of human ALR sulfhydryl oxidase, dose response, biochemical, H2O2 detection, luminescence, cherry-pick (AID 493248)
Protein skinhead-1 = target: T1, Protein skinhead-1 (Caenorhabditis elegans, UniProt P34707); type: functional
T1 sequence (P34707 whole entry): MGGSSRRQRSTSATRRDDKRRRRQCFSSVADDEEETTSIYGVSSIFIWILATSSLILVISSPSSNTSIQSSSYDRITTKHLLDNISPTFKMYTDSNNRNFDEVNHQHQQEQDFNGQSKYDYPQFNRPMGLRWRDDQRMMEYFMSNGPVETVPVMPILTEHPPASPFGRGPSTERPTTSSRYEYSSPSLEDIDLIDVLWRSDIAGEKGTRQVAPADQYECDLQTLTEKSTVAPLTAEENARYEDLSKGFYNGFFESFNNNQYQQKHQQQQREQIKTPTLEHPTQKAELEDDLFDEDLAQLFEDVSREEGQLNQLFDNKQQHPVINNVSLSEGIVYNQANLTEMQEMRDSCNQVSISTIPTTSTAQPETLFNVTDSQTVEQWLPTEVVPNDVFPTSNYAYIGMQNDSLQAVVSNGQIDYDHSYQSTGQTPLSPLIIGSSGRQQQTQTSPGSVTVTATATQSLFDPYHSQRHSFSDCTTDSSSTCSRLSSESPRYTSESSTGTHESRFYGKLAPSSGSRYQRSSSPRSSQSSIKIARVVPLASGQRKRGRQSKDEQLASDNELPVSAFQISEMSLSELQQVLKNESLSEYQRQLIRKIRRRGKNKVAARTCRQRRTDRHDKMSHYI

Cytochrome P450 1A2 = target: T2, Cytochrome P450 1A2 (Homo sapiens, UniProt P05177);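 note: PubChem cytochrome P450 panel assay, CYP1A2 panel member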
T2 sequence (P05177 whole entry): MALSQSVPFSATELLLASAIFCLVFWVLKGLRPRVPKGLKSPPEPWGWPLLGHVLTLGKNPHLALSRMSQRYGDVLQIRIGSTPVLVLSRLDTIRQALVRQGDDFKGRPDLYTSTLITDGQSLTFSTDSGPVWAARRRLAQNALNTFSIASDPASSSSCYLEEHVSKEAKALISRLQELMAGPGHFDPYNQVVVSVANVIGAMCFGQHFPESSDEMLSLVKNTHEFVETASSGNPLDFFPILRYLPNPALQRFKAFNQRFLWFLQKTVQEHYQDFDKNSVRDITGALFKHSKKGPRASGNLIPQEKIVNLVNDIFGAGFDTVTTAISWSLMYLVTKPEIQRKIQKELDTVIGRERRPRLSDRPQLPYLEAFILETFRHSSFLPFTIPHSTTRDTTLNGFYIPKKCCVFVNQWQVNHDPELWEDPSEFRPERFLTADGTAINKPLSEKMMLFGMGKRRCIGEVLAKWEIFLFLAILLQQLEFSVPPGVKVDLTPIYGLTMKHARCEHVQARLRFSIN

Cytochrome P450 2C9 = Cytochrome P450 2C9 (Homo sapiens, UniProt P11712)
Cytochrome P450 2D6 = Cytochrome P450 2D6 (Homo sapiens, UniProt P10635);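 note: CYP2D6 member of a cytochrome P450 panel assay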
Cytochrome P450 3A4 = Cytochrome P450 3A4 (Homo sapiens, UniProt P08684);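 note: CYP3A4 tested as one member of a cytochrome P450 panel screen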
[2] = target: T3, Heat shock factor protein 1 (Mus musculus, UniProt P38532); test: inhibition of MG132-induced HSE-luciferase signal, confirmation, cell-based, NIH3T3, luminescence, dose retest (AID 2382); type: functional;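 note: NIH3T3 fibroblasts with HSF1-driven luciferase reporter stressed by proteasome inhibitor MG132; luminescence from HSF1-driven luciferase expression after 8 hours of MG132 stress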
T3 sequence (P38532 whole entry): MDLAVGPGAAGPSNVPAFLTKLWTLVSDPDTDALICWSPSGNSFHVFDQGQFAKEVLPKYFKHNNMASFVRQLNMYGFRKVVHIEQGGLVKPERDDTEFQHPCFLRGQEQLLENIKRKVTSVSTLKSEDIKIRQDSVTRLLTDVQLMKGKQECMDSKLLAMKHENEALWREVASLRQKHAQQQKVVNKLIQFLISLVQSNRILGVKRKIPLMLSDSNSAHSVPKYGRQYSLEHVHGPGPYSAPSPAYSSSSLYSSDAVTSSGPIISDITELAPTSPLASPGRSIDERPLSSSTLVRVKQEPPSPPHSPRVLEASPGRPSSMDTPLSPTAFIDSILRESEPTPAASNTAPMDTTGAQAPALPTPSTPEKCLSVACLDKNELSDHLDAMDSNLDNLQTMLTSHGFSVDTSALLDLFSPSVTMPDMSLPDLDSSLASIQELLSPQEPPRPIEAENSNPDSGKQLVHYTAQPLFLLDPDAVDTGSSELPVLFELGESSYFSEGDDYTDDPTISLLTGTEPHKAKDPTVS

H4 = test: Luminescence Cell-Based Dose Response HTS to Identify Activators of 5'UTR Stem-Loop Driven Prion Protein mRNA Translation in H4 Neuroglioblastoma Cells. [Related pubchem assays: 1829 (Project Summary), 1814 (Primary HTS)]; type: functional; conditions: Homo sapiens
[3] = Luminescence Cell-Based Dose Response HTS to Identify Activators of Luciferase Translation or Activity in H4 […] Cells. [Related pubchem assays: 1829 (Project Summary), 1814 (Primary HTS)]; type: functional
[4] = HEp-2 cell cytotoxicity, dose response, cytotoxicity control for RSV inhibitor project, HTS (AID 2410); type: functional; conditions: human respiratory syncytial virus
[5] = target: T4, Short transient receptor potential channel 4 (Mus musculus, UniProt Q9QUQ5); test: mouse TRPC4 channel inhibitors, dose response, cell-based, HEK293 TRPC4/mu-opioid, Fluo-4 calcium (AID 434942); type: functional;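 note: potency of inhibitors blocking the TRPC4 calcium response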
T4 sequence (Q9QUQ5 whole entry): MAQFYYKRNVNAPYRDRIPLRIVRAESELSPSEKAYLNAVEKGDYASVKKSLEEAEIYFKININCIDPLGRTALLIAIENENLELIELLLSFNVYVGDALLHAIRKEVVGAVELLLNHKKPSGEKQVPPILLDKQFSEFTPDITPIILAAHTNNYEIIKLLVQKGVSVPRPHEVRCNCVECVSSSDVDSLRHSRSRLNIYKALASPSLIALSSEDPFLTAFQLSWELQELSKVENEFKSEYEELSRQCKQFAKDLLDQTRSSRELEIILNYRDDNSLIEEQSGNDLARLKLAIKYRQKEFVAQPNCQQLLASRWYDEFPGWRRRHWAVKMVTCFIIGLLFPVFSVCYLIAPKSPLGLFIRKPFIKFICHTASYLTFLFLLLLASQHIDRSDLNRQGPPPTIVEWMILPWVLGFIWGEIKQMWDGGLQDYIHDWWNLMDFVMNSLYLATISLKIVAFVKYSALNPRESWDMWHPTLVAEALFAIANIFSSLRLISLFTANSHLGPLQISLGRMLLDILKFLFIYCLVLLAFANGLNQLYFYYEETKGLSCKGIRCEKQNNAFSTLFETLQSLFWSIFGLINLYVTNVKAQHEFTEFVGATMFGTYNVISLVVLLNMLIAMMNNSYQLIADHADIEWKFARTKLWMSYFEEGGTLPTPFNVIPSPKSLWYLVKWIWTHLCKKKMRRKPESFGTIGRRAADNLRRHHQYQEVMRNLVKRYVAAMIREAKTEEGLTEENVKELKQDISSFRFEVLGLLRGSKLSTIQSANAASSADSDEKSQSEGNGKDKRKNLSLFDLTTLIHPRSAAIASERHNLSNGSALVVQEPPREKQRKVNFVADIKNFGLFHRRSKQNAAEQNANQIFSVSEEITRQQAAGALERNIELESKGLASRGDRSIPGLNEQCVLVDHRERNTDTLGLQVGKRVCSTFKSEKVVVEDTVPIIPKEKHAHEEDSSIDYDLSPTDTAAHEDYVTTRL

[6] = target: T3, Heat shock factor protein 1; test: HSF1 potentiators in luciferase reporter cells, confirmation, cell-based, NIH3T3, luminescence, dose retest (AID 435004); type: functional;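 note: stress induced by proteasome inhibitor MG132 added 30 min after compound; luciferase reporter driven by HSF1 response element in NIH3T3 cells; actives raise luminescence as potentiators of the MG132 stress response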
Cytochrome P450 2C19 = Cytochrome P450 2C19 (Homo sapiens, UniProt P33261); test: Cytochrome panel assay with activity outcomes. Panel member name: p450-cyp2c19 Compounds with AC50 equal or less than 10 uM are considered active; type: functional; conditions: read-out: AC50
[7] = inhibitors of intracellular T. cruzi replication, confirmation, NIH3T3 host cells, beta-gal luminescence (AID 2044); type: functional, cell-based;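 note: intracellular parasites grown in NIH/3T3 mouse fibroblasts as host cells; luminescent beta-galactosidase reporter signal from transgenic T. cruzi replicating inside host cells; inhibitors lower the luminescence signal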
[8] = cytotoxicity toward NIH3T3 fibroblasts, dose response, counter-screen, cell-based, ATP luminescence, mouse fibroblasts (AID 2010); type: functional;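 note: cells exposed to compound for about 90 hours before reading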

Sequence of FAD-linked sulfhydryl oxidase ALR (P55789 whole entry): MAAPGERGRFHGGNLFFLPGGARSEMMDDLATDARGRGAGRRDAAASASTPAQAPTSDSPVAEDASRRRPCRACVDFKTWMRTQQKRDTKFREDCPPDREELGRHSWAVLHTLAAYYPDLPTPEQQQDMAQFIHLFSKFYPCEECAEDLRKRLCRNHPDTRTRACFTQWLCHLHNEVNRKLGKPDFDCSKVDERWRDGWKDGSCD
Sequence of Cytochrome P450 2D6 (P10635 whole entry): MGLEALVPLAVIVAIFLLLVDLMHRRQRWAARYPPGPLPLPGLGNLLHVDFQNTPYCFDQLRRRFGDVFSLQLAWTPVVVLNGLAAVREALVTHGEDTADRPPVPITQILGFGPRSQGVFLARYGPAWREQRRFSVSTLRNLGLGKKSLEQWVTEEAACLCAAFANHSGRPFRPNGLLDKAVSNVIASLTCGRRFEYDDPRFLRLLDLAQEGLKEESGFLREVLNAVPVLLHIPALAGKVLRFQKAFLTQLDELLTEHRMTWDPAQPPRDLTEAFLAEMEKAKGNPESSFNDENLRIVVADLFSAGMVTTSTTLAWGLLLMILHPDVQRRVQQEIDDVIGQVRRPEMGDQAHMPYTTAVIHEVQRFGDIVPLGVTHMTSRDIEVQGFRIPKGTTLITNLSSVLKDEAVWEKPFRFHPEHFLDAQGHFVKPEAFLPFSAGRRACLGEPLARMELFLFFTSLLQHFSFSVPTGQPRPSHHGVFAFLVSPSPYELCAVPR
Sequence of Cytochrome P450 2C9 (P11712 whole entry): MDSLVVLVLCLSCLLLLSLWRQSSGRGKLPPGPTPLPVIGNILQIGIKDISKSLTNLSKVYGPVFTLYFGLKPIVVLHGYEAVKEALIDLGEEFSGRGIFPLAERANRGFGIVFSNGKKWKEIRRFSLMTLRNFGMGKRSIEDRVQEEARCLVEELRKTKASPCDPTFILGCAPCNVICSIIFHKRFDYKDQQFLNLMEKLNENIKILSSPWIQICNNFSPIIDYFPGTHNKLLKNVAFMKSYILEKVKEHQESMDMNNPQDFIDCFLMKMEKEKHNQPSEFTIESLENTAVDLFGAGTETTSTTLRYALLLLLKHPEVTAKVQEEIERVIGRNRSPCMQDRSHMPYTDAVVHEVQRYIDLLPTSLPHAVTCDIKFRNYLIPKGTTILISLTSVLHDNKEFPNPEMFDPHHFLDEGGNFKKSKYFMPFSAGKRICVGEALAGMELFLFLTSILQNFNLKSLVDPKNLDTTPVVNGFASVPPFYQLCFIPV
Sequence of Cytochrome P450 3A4 (P08684 whole entry): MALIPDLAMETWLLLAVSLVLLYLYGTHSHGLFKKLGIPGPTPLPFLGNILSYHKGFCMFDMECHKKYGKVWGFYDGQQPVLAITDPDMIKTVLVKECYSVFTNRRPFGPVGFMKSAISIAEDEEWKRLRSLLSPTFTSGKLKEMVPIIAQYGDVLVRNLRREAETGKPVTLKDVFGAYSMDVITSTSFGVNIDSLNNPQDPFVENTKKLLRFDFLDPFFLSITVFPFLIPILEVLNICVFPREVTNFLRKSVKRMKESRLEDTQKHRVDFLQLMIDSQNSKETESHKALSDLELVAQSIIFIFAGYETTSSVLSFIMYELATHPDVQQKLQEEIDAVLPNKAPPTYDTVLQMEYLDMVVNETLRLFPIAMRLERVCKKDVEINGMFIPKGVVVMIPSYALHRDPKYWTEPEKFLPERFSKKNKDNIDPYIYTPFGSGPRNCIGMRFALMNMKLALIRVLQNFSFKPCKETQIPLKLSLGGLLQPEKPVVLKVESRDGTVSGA
Sequence of Cytochrome P450 2C19 (P33261 whole entry): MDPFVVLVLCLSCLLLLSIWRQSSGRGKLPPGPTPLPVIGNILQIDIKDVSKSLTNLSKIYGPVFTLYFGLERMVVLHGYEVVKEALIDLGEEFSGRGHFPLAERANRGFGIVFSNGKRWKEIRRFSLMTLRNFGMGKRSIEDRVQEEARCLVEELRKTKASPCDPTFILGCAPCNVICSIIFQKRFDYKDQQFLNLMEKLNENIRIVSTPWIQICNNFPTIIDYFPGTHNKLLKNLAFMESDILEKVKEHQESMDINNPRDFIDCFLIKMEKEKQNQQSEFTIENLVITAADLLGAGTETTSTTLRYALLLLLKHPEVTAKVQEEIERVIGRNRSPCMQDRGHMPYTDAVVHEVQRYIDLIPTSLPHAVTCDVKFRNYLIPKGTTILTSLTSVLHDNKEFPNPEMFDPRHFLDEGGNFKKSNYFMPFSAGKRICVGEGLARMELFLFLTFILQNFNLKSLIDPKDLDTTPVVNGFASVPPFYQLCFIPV

## CC(=O)Oc1ccc(/C=N/NC(=O)C2CCCN2S(=O)(=O)c2ccc(Cl)cc2)cc1 (centres undefined)
[1]
  AC50: 12.7 µM (active)

## Fc1ccc(Cn2nnc(-c3ccc(CN4CCOCC4)cc3)n2)cc1
Protein skinhead-1
  IC50: 6.09 µM (active)

## Cc1ccc(S(=O)(=O)N(C)CC(=O)Nc2ccccc2N2CCCC2)cc1
[1]
  AC50: 2.39 µM (active)

## CN1CC[C@]2(C)c3cc(O)ccc3N(C)[C@@H]12
Cytochrome P450 1A2
  AC50: 15.8 µM (inconclusive) and 31.6 µM (inconclusive)
Cytochrome P450 2C9
  AC50: 12.6 µM (inconclusive)
Cytochrome P450 2D6
  AC50: 31.6 µM (inconclusive) and 12.6 µM (inconclusive)

## Nc1ccc(NC(=O)c2cccs2)cc1
[1]
  AC50: 0.515 µM (active)

## Fc1ccccc1N=C(S)NN(Cc1ccccc1)c1ccccc1
Protein skinhead-1
  IC50: > 100 µM (inactive)

## O=C(CC(c1ccccc1)c1ccccc1)NCC1CCCO1 (centres undefined)
Cytochrome P450 3A4
  AC50: 22.4 µM (inconclusive)
Cytochrome P450 2D6
  AC50: 11.2 µM (inconclusive)

## COc1ccc(-n2c(=O)c(-c3cc(F)cc(F)c3)nc3cnc(N4CCOCC4)nc32)cc1
Cytochrome P450 1A2
  AC50: 15.8 µM (inconclusive)
Cytochrome P450 3A4
  AC50: 15.8 µM (inconclusive)
Cytochrome P450 2D6
  AC50: 20 µM (inconclusive)

## O=c1cc(N2CCCCC2)c(-c2ccccc2)nn1Cc1ccccc1Cl
Cytochrome P450 2D6
  AC50: 28.2 µM (inconclusive)

## CNC(=O)NC(=S)NC(=O)c1ccccc1Cl
[2]
  EC50: > 195 µM (not active)

## COc1ccc2c(c1)OC/C(=C/c1cccs1)C2=O
Protein skinhead-1
  IC50: 28.7 µM (active)

## CCOC(=O)C1=C(CSc2nc(-c3ccccc3)ccc2C#N)OC(N)=C(C#N)C1c1ccccc1 (centres undefined)
Protein skinhead-1
  IC50: > 100 µM (inactive)

## CN(C)c1nccc(N(Cc2ccccc2)Cc2ccccc2)c1C#N
Cytochrome P450 2D6
  AC50: 10 µM (inconclusive)

## COC(=O)c1cc(S(=O)(=O)NCCc2ccccc2)c[nH]1
[2]
  EC50: > 195 µM (not active)

## COc1ccccc1NC(=O)CN1CCSc2ccccc21
[1]
  AC50: 1.32 µM (active)

## CN(/C(=N\S(=O)(=O)c1ccccc1)C(F)(F)F)c1ccccc1
[2]
  EC50: > 195 µM (not active)

## O=C1CCC(=O)N1c1ccc(CSc2nc3ccccc3[nH]2)cc1
[1]
  AC50: 1.22 µM (active)

## COc1cccc(NC(=O)N2CCCC2C(=O)NC(C)C)c1 (centres undefined)
[2]
  EC50: 152 µM (active)

## O=C(CNC(=O)c1cccnc1)N/N=C/c1cc(Br)c(O)c(Br)c1
[2]
  EC50: > 195 µM (not active)

## O=C(c1ccccc1-c1nc(-c2ccc(Cl)cc2)no1)N1CCCC1
H4
  EC50: 99.2 µM (active)
[3]
  EC50: 8.33 µM (active)

## CC[n+]1c(/C=C/c2cc([N+](=O)[O-])ccc2O)ccc2ccccc21
[4]
  CC50: 36.9 µM (active)
[2]
  EC50: > 195 µM (not active)

## CSc1nccn1CC(=O)Nc1ccc(F)cc1
[1]
  AC50: 2.88 µM (active)

## Cc1ccc(S(=O)(=O)Nc2nc(C)c(NC(=O)Nc3ccc(Cl)cc3Cl)s2)cc1
Cytochrome P450 2D6
  AC50: 28.2 µM (inconclusive)

## CCOc1ccc(N2C(=O)c3cccnc3C2=O)cc1
Cytochrome P450 2C9
  AC50: 7.94 µM (inconclusive)
Cytochrome P450 2D6
  AC50: 0.178 µM (inconclusive)

## O=C(Nc1ccc2c(c1)CN(C(=O)Nc1ccc(F)cc1)CC2)c1ccccn1
Protein skinhead-1
  IC50: > 100 µM (inactive)

## COc1ccc2[nH]cc(CCNc3cc(-c4ccccc4C(F)(F)F)ncn3)c2c1
Cytochrome P450 2C9
  AC50: 1 µM (inconclusive)
Cytochrome P450 2D6
  AC50: 20 µM (inconclusive)

## Cc1ccc(F)cc1N=C(S)NCCc1ccccc1
[2]
  EC50: > 195 µM (not active)

## COc1ccc(O)c(-c2c(C)n[nH]c2-c2ccc(Cl)cc2)c1
[2]
  EC50: > 195 µM (not active)

## O=C(c1ccncc1)N1CCC2(CC1)CN(Cc1cc(C(F)(F)F)cc(C(F)(F)F)c1)C2
Cytochrome P450 2D6
  AC50: 31.6 µM (inconclusive)

## CN(C)CCN1C(=O)C2C(C(=O)Nc3cc(Cl)cc(Cl)c3)C3C=CC2(O3)C1C(=O)NC1CCCCC1 (centres undefined)
[5]
  EC50: 6.68 µM (active)
[6]
  EC50: > 260 µM (inactive)

## CC(=O)Nc1ccc(-c2nnc(SCC(=O)c3ccc4c(c3)Cc3ccccc3-4)n2C)cc1
Cytochrome P450 2C19
  AC50: 6.31 µM (inconclusive)
Cytochrome P450 2D6
  AC50: 14.1 µM (inconclusive)

## CC(NS(=O)(=O)c1ccc(OCC(=O)N2CCOCC2)c(Cl)c1)c1ccccc1 (centres undefined)
Protein skinhead-1
  IC50: > 100 µM (inactive)

## CCC(C)(C)NC(=O)C(c1cccn1C)N(C(=O)Cn1nnc2ccccc21)c1ccc(OC)cc1OC (centres undefined)
Protein skinhead-1
  IC50: > 100 µM (inactive)

## CCCN1C2CCCC1CC(NC(=O)c1ccc(F)cc1)C2 (centres undefined)
Protein skinhead-1
  IC50: > 100 µM (inactive)

## S=C(N/N=C1\CCc2ccccc21)NC1CCCCC1
[2]
  EC50: 87.7 µM (active)

## COc1ccc(NC(=O)C2Cc3ccccc3C(=O)O2)cc1 (centres undefined)
[2]
  EC50: > 195 µM (not active)

## CCC1CCc2c(c3ccccc3[nH]c2=O)O1 (centres undefined)
Cytochrome P450 2C19
  AC50: 17.8 µM (inconclusive)
Cytochrome P450 2D6
  AC50: 39.8 µM (inconclusive)

## COCCn1c(SCc2ccc(OC)c(F)c2)nc2ccccc2c1=O
[7]
  EC50: 2.24 µM (active)
[5]
  EC50: 2.99 µM (active)
[8]
  EC50: 31.8 µM (active)

## O=C(Nc1ccccc1)c1c[nH]cn1
Protein skinhead-1
  IC50: > 100 µM (inactive)

## O=c1c2ccccc2nc(-c2ccc(Br)cc2)n1Cc1ccccc1
Cytochrome P450 2D6
  AC50: 25.1 µM (inconclusive)
